No end group written: not given here.

The assay relates to TLR2 TMD (functional ToxR chimera). As to the kind of experiment: Dominant-negative (heterotypic) ToxR assay, TLR2 as dominant phenotype. It is filed as cell-based. To be noted: Miller units normalized to poly-Leu* = 1 and corrected for expression, lower = stronger interaction, N in table. An excerpt: Next, we investigated heterotypic interactions of the TLRs. We specifically studied TLR2, TLR1, and TLR6 because they are cell surface expressed receptors known to form functional heterodimers. To determine the ability of these three cell surface TLRs to have heterotypic interactions within its family, we studied the ability of the TLR1, TLR2, and TLR6 TMDs to interact with the TLR receptors also expressed at the cell surface; namely, TLR1, TLR2, TLR4, TLR5, TLR6, and TLR10. We monitored these interactions using a dominant-negative ToxR assay (Fig. S1B) which works by having a second TMD expressed with a non-functional ToxR* intracellular domain. This ToxR* domain is incapable of binding the ctx promoter making any interactions with this second expressed TMD unable to produce the reporter enzyme. As such, any interaction between the functional ToxR and non-functional ToxR* TMDs will result in a reduction in signal output.
Figure 3 Cell- Surface Toll-like Recptor Heterotypic Interactions. (A) A dominant-negative ToxR assay was used to study heterotypic interactions of the cell-surface TLRs. Two TLR TMDs were encoded in the FHK12 E.coli reporter strain, one with a functional ToxR domain (dominant phenotype) and one with a nonfunctional ToxR* domain (negative phenotype). Interaction between the two different TMDs leads to a reduction in signal from that seen for homotypic interactions. The TMDs for GpA, TLR1, TLR2, and TLR6 were used with the functional ToxR domain while TMDs for poly-Leucine, TMD5, integrin αIIb, TLR1, TLR2, TLR4, TLR5, TLR6, and TLR10 were used with the nonfunctional ToxR* domain. Interactions were most prominent for the TLRs known to have heterotypic interactions – TLR2-TLR1 and TLR2-TLR6. […] We also saw interaction with the same TMD further validating the homotypic interactions. […] Each dominant phenotype was done in 3 technical replicates with each negative phenotype and >6 measurements made for each replicate. Error bars depict the standard error of the mean (n- Tables S3, S5, S7, S9). Western blots staining for MBP were performed to monitor expression levels of the constructs with the upper band being functional ToxR chimeras and the lower band being nonfunctional ToxR* chimeras – (B) GpA, (C) TLR1, (D) TLR2, and (E) TLR6. Significant differences for the same dominant phenotype were determined by use of the Tukey-Kramer test.
For heterotypic interactions one plasmid containing a functional ToxR domain (200 ng) and a second plasmid containing a non-functional ToxR* domain (200 ng) were co-transformed into chemically competent FHK12 E. coli (400 µL) by incubating on ice for 30 min, heat shock at 42°C for 90 s, incubation on ice for 2 min, and addition of SOC media (1600 µL) followed by incubation with shaking for 1 h at 37°C. This transformation mixture (50 µL) was then used to spread LB-agar plates containing cholaramphenicol (30 µg/mL), kanamycin (33 µg/mL), and ampicillin (100 µg/mL) and grown overnight at 37°C. Single colonies were selected from the plates and grown in 5 mL LB media containing cholaramphenicol (30 µg/mL), kanamycin (33 µg/mL), ampicillin (100 µg/mL), and arabinose (0.0025%) overnight (16–20 h) with shaking at 37°C. Analysis of activity was monitored as described in homotypic ToxR assays. Western blotting was done in the same manner as the homotypic ToxR assay with one band appearing for the functional ToxR construct and a second band for the nonfunctional ToxR* construct. Data were normalized to poly-Leu* Miller Units and corrected for varying protein expression levels using ImageJ (NIH) as previously reported.
For the substance “TLR6*: TLR6 TMD chimera with nonfunctional ToxR* domain (negative phenotype) (GNRASITLLIVTIGATMLVLAVTVTSLCIYLGSLIN; also: fused to non-functional ToxR* (S87H) and maltose binding protein, ends not given here)”, the “Mean TLR2-TMD* heterotypic interaction (ToxR signal)” value is reported as 0.2588. The value for “TLR1*: TLR1 TMD chimera with nonfunctional ToxR* domain (negative phenotype) (GNRASITLLIVTIVATMLVLAVTVTSLCSYLGSLIN; also: fused to non-functional ToxR* (S87H) and maltose binding protein, ends not given here)” was 0.2198. For the substance “TLR2*: TLR2 TMD chimera with nonfunctional ToxR* domain (negative phenotype) (GNRASALVSGMCCALFLLILLTGVLCGSLIN; cysteine pairing not given here; also: fused to non-functional ToxR* (S87H) and maltose binding protein, ends not given here)”, the “Mean TLR2-TMD* heterotypic interaction (ToxR signal)” value is 0.1930.

For the origin of these results see paper PMC3498381, “Isolated Toll-like Receptor Transmembrane Domains Are Capable of Oligomerization” (PLoS ONE, 2012).
